Assay results from publication PMC5854716, “Synthesis, molecular docking, ctDNA interaction, DFT calculation and evaluation of antiproliferative and anti-Toxoplasma gondii activities of 2,4-diaminotriazine-thiazole derivatives” (Medicinal Chemistry Research, 2018).
Values after ≈ are worked out from the molar mass of the structure shown.

Tests used:
[1] = tested on: Toxoplasma gondii BK strain; test: T. gondii tachyzoite intracellular proliferation in VERO host cells ([3H]uracil incorporation); format: cell-based; settings: Toxoplasma gondii
Experimental: The epithelial cell line VERO (ATCC-Catalog No. CCL-81^TM), derived from the kidney of the African green monkey, Cercopithecus aethiops and fibroblast cell line L-929 (ATCC-Catalog No. CCL-1^TM), derived from Mus musculus (http://www.atcc.org) were grown in Iscoves’s Modified Dulbecco’s Medium (IMDM) supplemented with 10% (v/v) fetal bovine serum (FBS), plus 2 mM L-glutamine, 100 U/ml penicillin, 100.00 µg/ml streptomycin, 5 × 10^−5 M 2-mercaptoethanol and maintained at 37 °C in a 10% CO2 atmosphere. Subcultures were performed via enzymatic cell dissociation in 0.25% trypsin. After dissociation, the cells were placed in culture medium at 4 °C with 10% FBS to inhibit the action of trypsin. The isolated cells were centrifuged for 10 min at 1000×g at 4 °C, and the cells were grown in new bottles. This procedure was repeated when cells reached a confluence of ~90%. All commercial reactants and solvents were purchased from either Sigma-Aldrich Laborchemikalien GmbH (Dzitko et al. [2014]).
Suspensions of the compounds 4a–l were freshly prepared (5 mg/ml DMSO) before the cells were exposed, and diluted to appropriate concentrations; 0.9, 1.8, 3.9, 7.8, 15.6, 31.2, 62.5, and 125.00 μg/ml with the culture medium. Cells treated with 2.5% DMSO-solvent served as a control in each experiment.
Stock solutions of the Sulfadiazine (100 mg/ml 1 N NaOH; Catalog No. S8626) was freshly prepared before each experiment, and diluted to appropriate concentrations: 5.00, 25.00, 50.00, 125.00, 250.00, 500.00, 1250.00, and 2500.00 μg/ml, respectively in IMDM complete medium. All commercial reactants and solvents were purchased from either Sigma-Aldrich Laborchemikalien GmbH.
Tachyzoites of T. gondii, BK strain, were maintained in female C57BL/6 (H-2^b) and BALB/c (H-2^d) mice (with genetically determined high and low susceptibility, respectively to Toxoplasma infection) via serial intraperitoneal inoculation of 10^5–10^6 parasites per mouse in phosphate-buffered saline (PBS). After 48 to 96 h, parasites were harvested via peritoneal lavage using PBS, pH 7.2, and centrifuged at 200×g for 5 min to remove blood cells and cell debris. The supernatant containing tachyzoites was collected and centrifuged again at 2000×g for 15 min. The final pellet was resuspended in IMDM, quantified in a Burker’s chamber, and used in experimental assays. Inbred mice were kept under standard laboratory conventional conditions. All experimental procedures were conducted according to guidelines of the 9. Local Ethics Commission for Experiments on Animals in Lodz.
VERO, (2 × 10^4 cells/100 µl/well) were grown in complete medium (IMDM) on 96-well plates. After 24 h incubation, a medium was removed and then T. gondii […] tachyzoites, suspended in culture medium supplemented with 0.9–125.00 μg/ml diaminotriazines 4a–l and as a control-sulfadiazine (5.0–2500.0 μg/ml), were added (2 × 10^5 tachyzoites/200 µl/well) to the cell monolayers. After subsequent 48 h incubation 1 µCi/well of [^3H] uracil (Moravek Biochemicals Inc., Brea, CA, USA) was applied to each microculture for further 18–20 h. The amount of the isotope incorporated into the parasite nucleic acid pool, corresponding to the parasite growth, was measured by liquid scintillation counting with 1450 Microbeta Plus Liquid Scintillation Counter (Wallac Oy, Turku, Finland). The cpms of host cells alone (below 250/microculture) were subtracted from cpms of T. gondii infected microcultures (Dzitko et al. [2014]).

[2] = tested on: biphenotypic B myelomonocytic leukemia MV4-11 cells; test: In vitro antiproliferative assay (MTT), MV4-11; format: cell-based, human; settings: 72 h exposure, mean ± SD
Experimental: Biphenotypic B myelomonocytic leukemia MV4-11, human lung carcinoma A549, human breast carcinoma MCF-7, and normal mouse fibroblast BALB/3T3 cells were obtained from American Type Culture Collection (Rockville, Maryland, USA). All the cell lines are being maintained at the Institute of Immunology and Experimental Therapy, Wroclaw, Poland. MV4-11 cells were cultured in RPMI 1640 medium (Gibco, UK) with 2 mM L-glutamine adjusted to contain 1.0 mM sodium pyruvate, and 10% fetal bovine serum (FBS) (all from Sigma-Aldrich, Germany). A549 cells were cultured in RPMI 1640+ Opti-MEM (1:1) (both from Gibco, UK), MCF-7 cells in Eagle medium (IIET, Wroclaw, Poland), BALB/3T3 in Dulbecco medium (IIET, Poland) supplemented with 2 mM L-glutamine and 1.0 mM sodium pyruvate, 10% fetal bovine serum (all from Sigma-Aldrich, Germany). The MCF-7 cell culture was supplemented with 0.8 mg/l of insulin (Sigma-Aldrich, Germany). All culture media were supplemented with 100 units/ml penicillin, and 100 µg/ml streptomycin (both from Polfa Tarchomin S.A., Poland). All cell lines were grown at 37 °C with 5% CO2 humidified atmosphere (Łączkowski et al. [2014], [2016a]).
Prior to usage, the compounds were dissolved in DMSO and culture medium (1: 9) to the concentration of 1 mg/ml, and subsequently diluted in culture medium to reach the required concentrations (0.1, 1, 10, and 100 µg/ml) (Łączkowski et al. [2014], [2016a]).
Twenty-four hours prior to the addition of the tested compounds, the cells counted using Burker hemocytometer were plated in 96-well plates (Sarstedt, Germany) at a density of 1 × 10^4 cells per well. The assay was performed after 72 h of exposure to varying concentrations of the tested agents. The in vitro cytotoxic effect of all agents was examined using the SRB assay for adherent cells (A549, MCF-7, and BALB/3T3) or MTT assay for leukemia cells (MV4-11) as described previously. The results were calculated as an inhibitory concentration 50 (IC50)—the concentration of tested agent which inhibits proliferation of 50% of the cancer cell population. Each compound in each concentration was tested in triplicate in a single experiment, which was repeated 3–7 times (Rubinstein et al. [1990]; Bramson et al. [1995]).
Twenty microliter of MTT solution (MTT: 3-(4,5-dimethylthiazol-2-yl)-2,5-diphenyltetrazolium bromide, stock solution: 5 mg/ml) was added to each well and incubated for 4 h. After the incubation time was complete, 80 µl of the lysis mixture was added to each well (lysis mixture: 225 ml dimethylformamide, 67.5 g sodium dodecyl sulfate and 275 ml of distilled water). The optical densities of the samples were read after 24 h on a Synergy H4 (BioTek Instruments USA) photometer microtiter plate reader at 570 nm (Sidoryk et al. [2012]). All of chemicals were obtained from Sigma-Aldrich, Germany.

[3] = tested on: human breast carcinoma MCF-7 cells; test: In vitro antiproliferative assay (SRB), MCF-7; format: cell-based; settings: 72 h exposure, mean ± SD
Experimental: (§1) Biphenotypic B myelomonocytic leukemia MV4-11, human lung carcinoma A549, human breast carcinoma MCF-7, and normal mouse fibroblast BALB/3T3 cells were obtained from American Type Culture Collection (Rockville, Maryland, USA). All the cell lines are being maintained at the Institute of Immunology and Experimental Therapy, Wroclaw, Poland. MV4-11 cells were cultured in RPMI 1640 medium (Gibco, UK) with 2 mM L-glutamine adjusted to contain 1.0 mM sodium pyruvate, and 10% fetal bovine serum (FBS) (all from Sigma-Aldrich, Germany). A549 cells were cultured in RPMI 1640+ Opti-MEM (1:1) (both from Gibco, UK), MCF-7 cells in Eagle medium (IIET, Wroclaw, Poland), BALB/3T3 in Dulbecco medium (IIET, Poland) supplemented with 2 mM L-glutamine and 1.0 mM sodium pyruvate, 10% fetal bovine serum (all from Sigma-Aldrich, Germany). The MCF-7 cell culture was supplemented with 0.8 mg/l of insulin (Sigma-Aldrich, Germany). All culture media were supplemented with 100 units/ml penicillin, and 100 µg/ml streptomycin (both from Polfa Tarchomin S.A., Poland). All cell lines were grown at 37 °C with 5% CO2 humidified atmosphere (Łączkowski et al. [2014], [2016a]). Prior to usage, the compounds were dissolved in DMSO and culture medium (1: 9) to the concentration of 1 mg/ml, and subsequently diluted in culture medium to reach the required concentrations (0.1, 1, 10, and 100 µg/ml) (Łączkowski et al. [2014], [2016a]). Twenty-four hours prior to the addition of the tested compounds, the cells counted using Burker hemocytometer were plated in 96-well plates (Sarstedt, Germany) at a density of 1 × 10^4 cells per well. The assay was performed after 72 h of exposure to varying concentrations of the tested agents. The in vitro cytotoxic effect of all agents was examined using the SRB assay for adherent cells (A549, MCF-7, and BALB/3T3) or MTT assay for leukemia cells (MV4-11) as described previously. […] Each compound in each concentration was tested in triplicate in a single experiment, which was repeated 3–7 times (Rubinstein et al. [1990]; Bramson et al. [1995]). Cells were attached to the bottom of plastic wells by fixing them with cold 50% TCA (trichloroacetic acid, POCH, Gliwice, Poland) on top of the culture medium in each well. The plates were incubated at 4 °C for 1 h and then washed five times with tap water. The cellular material fixed with TCA was stained with 0.1% sulforhodamine B (SRB, Sigma-Aldrich, Germany) and dissolved in 1% acetic acid (POCH, Gliwice, Poland) for 30 min. Unbound dye was removed by rinsing (4×) in 1% acetic acid. The protein-bound dye was extracted with 10 mM unbuffered Tris base (Sigma-Aldrich, Germany) for determination of the optical density (λ = 540 nm) in a computer-interfaced, 96-well Synergy H4 (BioTek Instruments USA) photometer microtiter plate reader (Sidoryk et al. [2012]).

[4] = tested on: human lung carcinoma A549 cells; test: In vitro antiproliferative assay (SRB), A549; format: cell-based; settings: 72 h exposure, mean ± SD
Experimental: as §1

[5] = tested on: normal mouse fibroblast Balb/3T3 cells; test: In vitro cytotoxicity (SRB), Balb/3T3; format: cell-based; settings: 72 h exposure, mean ± SD
Experimental: as §1

| SMILES | activity at 5 µg/mL ([1]; 5.00 µg/ml, VERO host cells) [%] | activity at 25 µg/mL ([1]; 25.00 µg/ml, VERO host cells) [%] | activity at 50 µg/mL ([1]; 50.00 µg/ml, VERO host cells) [%] | activity at 125 µg/mL ([1]; 125.00 µg/ml, VERO host cells (Table 3)) [%] | activity at 250 µg/mL ([1]; 250.00 µg/ml, VERO host cells) [%] | activity at 500 µg/mL ([1]; 500.00 µg/ml, VERO host cells) [%] | activity at 1250 µg/mL ([1]; 1250.00 µg/ml, VERO host cells) [%] | activity at 2500 µg/mL ([1]; 2500.00 µg/ml, VERO host cells) [%] | IC50 ([1]; VERO host cells, GraphPad Prism curves, read-out: IC50 (50% inhibition of T. gondii proliferation in vitro)) [µg/mL] | IC50 MV4-11 [2] [µg/mL] | IC50 MCF-7 [3] [µg/mL] | IC50 A549 [4] [µg/mL] | IC50 Balb/3T3 [5] [µg/mL] |
| --- | --- | --- | --- | --- | --- | --- | --- | --- | --- | --- | --- | --- | --- |
| Nc1ccc(S(=O)(=O)Nc2ncccn2)cc1 [Sulfadiazine, reference compound] | 92 | 80.5 | 70.7 | 55.2 | 52.8 | 41.6 | 39.7 | 39.6 | 1020 (≈ 4.09 mM) |  |  |  |  |
| N.N.[Cl][Pt][Cl] [cis-platin, reference compound] |  |  |  |  |  |  |  |  |  | 0.22 ± 0.11 | 2.33 ± 0.465 | 2.69 ± 1.119 | 2.55 ± 0.588 |
